From patent US20240174690A1, “ANNULATED 2-AMINO-3-CYANO THIOPHENES AND DERIVATIVES FOR THE TREATMENT OF CANCER” (BOEHRINGER INGELHEIM INTERNATIONAL GMBH, priority 2021, published 2024)
Converted amounts (≈) assume the structure as drawn. Read-outs that look alike come from different tables or passages of the source.

How the values were obtained:
[1] = Solubility measurement (DMSO solution method), McIlvaine buffer pH 4.5 or 6.8; format: physicochemical; details: aqueous buffer, kinetic from dmso stock, DMSO stock diluted to 250 μM, 24 h shaking at ambient temperature
How it was run: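 DMSO stock diluted into McIlvaine buffer, pH 4.5 or 6.8, to 250 µM final, shaken 24 h at ambient temperature. Precipitate removed by filtration; filtrate quantified by LC-UV against a fully dissolved reference in acetonitrile/water 1:1.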

AsPC-1 cells = test: AsPC-1 CTG proliferation assay (120 h) (pancreatic cancer, G12D); format: cell-based; details: Homo sapiens, ASPC1
How it was run: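 AsPC-1 cells (KRAS G12D), 2000/well in RPMI with 10% FCS, seeded overnight, then treated with compound for 120 h at 37 °C. Viability by CellTiter-Glo luminescence as percent of DMSO control. IC50 from a four-parameter non-linear fit.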

LOVO cells = test: LOVO CTG proliferation assay (120 h) (CRC, G13D); format: cell-based; details: Homo sapiens, CTG 120 h
How it was run: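 LOVO cells, 1000 per well in DMEM + 10% FCS, were plated overnight and then dosed with compound from DMSO stock. After 120 h at 37 °C, viability was read by CellTiter-Glo luminescence as a percentage of DMSO controls. IC50 was derived by four-parameter non-linear regression.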

[2] = tested on: KRAS G12C-dependent Ba/F3 cells; test: Ba/F3 proliferation assay, KRAS G12C; format: cell-based; details: Mus musculus, BaF3, 72 h, AlamarBlue
How it was run: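 Ba/F3 cells were retrovirally transduced with KRAS G12 mutant vectors, puromycin-selected (1 μg/mL) and grown without IL-3 to make them KRAS-dependent. Compounds were tested in technical duplicates, viability was read by AlamarBlue fluorescence, and values came from curve fitting.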

[3] = McIlvaine buffer pH 4.5, read-out: solubility pH 4.5
[4] = McIlvaine buffer pH 6.8, read-out: solubility pH 6.8

| solubility at 24 h [1, 3] [µg/mL] | solubility at 24 h [1, 4] [µg/mL] | IC50 (AsPC-1 cells) [nM] | IC50 (LOVO cells) [nM] | IC50 [2] [nM] | Structure (SMILES) |
| --- | --- | --- | --- | --- | --- |
| 80 (≈ 133 µM) | 34 (≈ 56.7 µM) | 694 | 29 | 4 | C[C@H](Oc1cc(-n2ccc(C(N)=O)n2)nc(-c2noc3c2CCC[C@@]32CCCc3sc(N)c(C#N)c32)n1)[C@@H]1CCCN1C [II-21] |
| > 157 | 98 (≈ 176 µM) | 5420 | 298 | 14 | C[C@H](Oc1cc(-n2ccnc2)nc(-c2onc3c2CCC[C@@]32CCCc3sc(N)c(C#N)c32)n1)[C@@H]1CCCN1C [I-20] |
| – | – | 980 | 925 | 509 | C[C@H](Oc1cc(N2CCN(C)C3(CCC3)C2)nc(-c2onc3c2CCC[C@@]32CCCc3sc(N)c(C#N)c32)n1)[C@@H]1CCCN1C [I-44] |
| 112 (≈ 200 µM) | 104 (≈ 185 µM) | 650 | 31 | 9 | C[C@H](Oc1cc([C@@H]2CCOC2)nc(-c2onc3c2CCC[C@@]32CCCc3sc(N)c(C#N)c32)n1)[C@@H]1CCCN1C [I-22] |
| 75 (≈ 119 µM) | < 1 | 1640 | 124 | 8 | CCOC(=O)c1ccn(-c2cc(O[C@@H](C)[C@@H]3CCCN3C)nc(-c3noc4c3CCC[C@@]43CCCc4sc(N)c(C#N)c43)n2)n1 [II-23] |
| > 158 | > 161 | 779 | 49 | 5 | C[C@H](Oc1cc(-n2ccc(C(=O)N(C)C3COC3)n2)nc(-c2onc3c2CCC[C@@]32CCCc3sc(N)c(C#N)c32)n1)[C@@H]1CCCN1C [I-60] |
| 93 (≈ 160 µM) | 8 (≈ 13.8 µM) | 3420 | 390 | 67 | Cc1ccc(-c2cc(O[C@@H](C)[C@@H]3CCCN3C)nc(-c3onc4c3CCC[C@@]43CCCc4sc(N)c(C#N)c43)n2)cn1 [I-28] |
| > 125 | 101 (≈ 192 µM) | 5900 | 1270 | 77 | C[C@H](Oc1cc(Cl)nc(-c2onc3c2CCC[C@@]32CCCc3sc(N)c(C#N)c32)n1)[C@@H]1CCCN1C [I-1] |

Further lines, the compound ahead of its results:

| Structure (SMILES) | solubility at 24 h [1, 3] [µg/mL] | solubility at 24 h [1, 4] [µg/mL] | IC50 (AsPC-1 cells) [nM] | IC50 (LOVO cells) [nM] | IC50 [2] [nM] |
| --- | --- | --- | --- | --- | --- |
| C[C@H](Oc1cc(N2CC[C@@H](N(C)C)C2)nc(-c2noc3c2CCC[C@@]32CCCc3sc(N)c(C#N)c32)n1)[C@@H]1CCCN1C [II-47] | > 162 | > 145 | 991 | 459 | 240 |
| CO[C@H]1CCN(C)[C@@H]1[C@H](C)Oc1cc(-n2ccc(C(=O)N[C@H]3CCOC3)n2)nc(-c2onc3c2CCC[C@@]32CCCc3sc(N)c(C#N)c32)n1 [I-54] | 16 (≈ 22.9 µM) | < 1 | 266 | 32 | 1 |
| C[C@H](Oc1cc(N2CC(N(C)C)C2)nc(-c2noc3c2CCC[C@@]32CCCc3sc(N)c(C#N)c32)n1)[C@@H]1CCCN1C [II-7] | > 141 | > 134 | 1640 | 835 | 277 |
| CO[C@H]1CCN(C)[C@@H]1[C@H](C)Oc1cc(-n2ccc(CC(=O)NC(C)C)n2)nc(-c2onc3c2CCC[C@@]32CCCc3sc(N)c(C#N)c32)n1 [I-48] | > 161 | 7 (≈ 10.2 µM) | 384 | 23 | 4 |
| C[C@H](Oc1nc(-c2onc3c2CCC[C@@]32CCCc3sc(N)c(C#N)c32)cc(N2CCN(C)C3(CC3)C2)n1)[C@@H]1CCCN1C [I-40] | – | – | – | – | 913 |
| C[C@H](Oc1cc(N2CCN(C)C3(COC3)C2)nc(-c2onc3c2CCC[C@@]32CCCc3sc(N)c(C#N)c32)n1)[C@@H]1C[C@@H](F)CN1C [I-37] | > 149 | 17 (≈ 26.2 µM) | 609 | 165 | 1180 |
| C[C@H](Oc1cc(-c2ccn(C)n2)nc(-c2noc3c2CCC[C@@]32CCCc3sc(N)c(C#N)c32)n1)[C@@H]1C[C@@H](F)CN1C [II-27] | 108 (≈ 183 µM) | < 1 | 4100 | 345 | 18 |
| C[C@@H]1CN(c2cc(O[C@@H](C)[C@@H]3C[C@@H](F)CN3C)nc(-c3noc4c3CCC[C@@]43CCCc4sc(N)c(C#N)c43)n2)CC2(CC2)N1 [II-17] | > 147 | 20 (≈ 31.6 µM) | 251 | 186 | 373 |
| C[C@H](Oc1cc(N2CCN(C)CC2)nc(-c2noc3c2CCC[C@@]32CCCc3sc(N)c(C#N)c32)n1)[C@@H]1CCCN1[C@@H]1CCOC1 [II-39] | – | – | 1760 | 2920 | 193 |
